Peptide text beside a SMILES is read from it.
Assays:
[1] = tested on: SH-SY5Y neuroblastoma cell line; test: Cell cytotoxicity assay; assay type: cell-based; conditions: up to a concentration of 20 μM; 72 h; CellTiterGlo
APPSWE/Tg2576 mice = test: Efficacy in 5-month-old AD model mice: Y-maze spontaneous alternation; assay type: in vivo, mouse; conditions: 5-month-old mice, 100 μg s.c. biweekly for 5 months, n = 12

Compound	Toxicity in SH-SY5Y cells [1]	Y-maze % alternation, after vs before treatment (APPSWE/Tg2576 mice)
C[C@H](O)[C@@H](NC(=O)[C@@H](Cc1c[nH]c2ccccc12)NC(=O)[C@@H](CCC(=O)O)NC(=O)CNC(=O)[C@@H](CCCCN)NC(=O)[C@H](N)Cc1c[nH]c2ccccc12)C(=O)NCC(=O)N[C@H](CCCNC(=N)N)C(=O)NCCC(=O)NCCCC[C@H](NC(=O)CCNC(=O)[C@@H](CCCNC(=N)N)NC(=O)CNC(=O)[C@H](NC(=O)[C@@H](Cc1c[nH]c2ccccc12)NC(=O)[C@@H](CCC(=O)O)NC(=O)CNC(=O)[C@@H](CCCCN)NC(=O)[C@H](N)Cc1c[nH]c2ccccc12)[C@H](C)O)C(=O)NCCCC[C@H](NC(=O)[C@H](CCCCNC(=O)CCNC(=O)[C@@H](CCCNC(=N)N)NC(=O)CNC(=O)[C@H](NC(=O)[C@@H](Cc1c[nH]c2ccccc12)NC(=O)[C@@H](CCC(=O)O)NC(=O)CNC(=O)[C@@H](CCCCN)NC(=O)[C@H](N)Cc1c[nH]c2ccccc12)[C@H](C)O)NC(=O)CCNC(=O)[C@@H](CCCNC(=N)N)NC(=O)CNC(=O)[C@H](NC(=O)[C@@H](Cc1c[nH]c2ccccc12)NC(=O)[C@@H](CCC(=O)O)NC(=O)CNC(=O)[C@@H](CCCCN)NC(=O)[C@H](N)Cc1c[nH]c2ccccc12)[C@H](C)O)C(=O)N[C@@H](CS)C(=O)O [RI-peptide] (HELM PEPTIDE1{[dW].[dK].G.[dE].[dW].[dT].G.[dR].[bAla].K.K.C}|PEPTIDE2{[dW].[dK].G.[dE].[dW].[dT].G.[dR].[bAla].K}|PEPTIDE3{[dW].[dK].G.[dE].[dW].[dT].G.[dR].[bAla]}|PEPTIDE4{[dW].[dK].G.[dE].[dW].[dT].G.[dR].[bAla]}$PEPTIDE1,PEPTIDE4,10:R3-9:R2|PEPTIDE1,PEPTIDE2,11:R3-10:R2|PEPTIDE2,PEPTIDE3,10:R3-9:R2$$$V2.0; N-terminus and C-terminus assumed)	not toxic	–
[FFVLK]4	–	improved % alternation results after treatment
